pIC50: −log10 of the molar value.

The text below walks through data of patent US9999619B2, “Piperidin-4-yl azetidine derivatives as JAK1 inhibitors” (Incyte Corporation, priority 2010, dated 2018).

Assay type in all cases: biochemical
One test deals with Jak2 (a.a. 828-1132) (Homo sapiens (Human), UniProt O60674). Put plainly: In vitro JAK kinase assay (HTRF, phosphorylation of a biotinylated peptide), JAK2. Particulars: measured at 1 mM ATP. The procedure:
(§1) Compounds herein were tested for inhibitory activity of JAK targets according to the following in vitro assay described in Park et al., Analytical Biochemistry 1999, 269, 94-104. The catalytic domains of human JAK1 (a.a. 837-1142), Jak2 (a.a. 828-1132) and Jak3 (a.a. 781-1124) with an N-terminal His tag were expressed using baculovirus in insect cells and purified. The catalytic activity of JAK1, JAK2 or JAK3 was assayed by measuring the phosphorylation of a biotinylated peptide. The phosphorylated peptide was detected by homogenous time resolved fluorescence (HTRF). […] Reactions were carried out at room temperature for 1 hr and then stopped with 20 μL 45 mM EDTA, 300 nM SA-APC, 6 nM Eu-Py20 in assay buffer (Perkin Elmer, Boston, Mass.). Binding to the Europium labeled antibody took place for 40 minutes and HTRF signal was measured on a Fusion plate reader (Perkin Elmer, Boston, Mass.).

Test [1] has as its target human JAK1 (a.a. 837-1142) (Homo sapiens, UniProt P23458). The experiment in a line: In vitro JAK kinase assay (HTRF, phosphorylation of a biotinylated peptide), JAK1. The conditions noted are these: measured at 1 mM ATP. The procedure:
as §1

The target in test [2] is human JAK1 (a.a. 837-1142). Described as above. The conditions noted are these: ratio of JAK2 IC50 to JAK1 IC50, measured at 1 mM ATP. The procedure: as §1

Sequence of Jak2 (a.a. 828-1132) (O60674 828-1132): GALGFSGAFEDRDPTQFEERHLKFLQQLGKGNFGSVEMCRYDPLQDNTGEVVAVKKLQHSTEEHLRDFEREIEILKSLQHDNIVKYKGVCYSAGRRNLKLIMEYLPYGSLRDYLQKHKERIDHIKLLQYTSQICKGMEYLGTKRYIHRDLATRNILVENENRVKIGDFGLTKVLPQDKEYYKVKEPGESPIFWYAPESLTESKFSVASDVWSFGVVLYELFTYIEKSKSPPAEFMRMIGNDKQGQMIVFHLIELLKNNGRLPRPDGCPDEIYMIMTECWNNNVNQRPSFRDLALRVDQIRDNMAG

In the case of `N#CCC1(n2cc(-c3ncnc4[nH]ccc34)cn2)CN([C@@H]2CCN(C(=O)c3ccnc(C(F)(F)F)c3F)C[C@@H]2F)C1` (relative stereo) [Example 361, {1-{cis-3-Fluoro-1-[3-fluoro-2-(trifluoromethyl)isonicotinoyl]piperidin-4-yl}-3-[4-(7H-pyrrolo[2,3-d]pyrimidin-4-yl)-1H-pyrazol-1-yl]azetidin-3-yl}acetonitrile], the pIC50 was 7.00 to 7.30 on Jak2 (a.a. 828-1132) and at least 8.30 in test [1]. Moreover, the “IC50 Ratio JAK2/JAK1” value in test [2] was found to be 20.9.

On to `N#CCC1(n2cc(-c3ncnc4[nH]ccc34)cn2)CN([C@@H]2CCN(C(=O)c3ccnc(C(F)(F)F)n3)C[C@@H]2F)C1` (relative stereo) [Example 362, {1-(cis-3-Fluoro-1-{[2-(trifluoromethyl)pyrimidin-4-yl]carbonyl}piperidin-4-yl)-3-[4-(7H-pyrrolo[2,3-d]pyrimidin-4-yl)-1H-pyrazol-1-yl]azetidin-3-yl}acetonitrile], for which the pIC50 on Jak2 (a.a. 828-1132) is 7.00 to 7.30; in test [1] it was at least 8.30. In test [2], the “IC50 Ratio JAK2/JAK1” value is given as 22.4.

`CC1CC(N2CC(CC#N)(n3cc(-c4ncnc5[nH]ccc45)cn3)C2)CCN1C(=O)c1cccc(F)c1` (single isomer, unassigned) [Example 149, {1-[1-(3-fluorobenzoyl)-2-methylpiperidin-4-yl]-3-[4-(7H-pyrrolo[2,3-d]pyrimidin-4-yl)-1H-pyrazol-1-yl]azetidin-3-yl}acetonitrile] gave a pIC50 in test [1] of at least 8.30. Besides, the “IC50 Ratio JAK2/JAK1” value in test [2] is given as 5.0.

`CC1CC(N2CC(CC#N)(n3cc(-c4ncnc5[nH]ccc45)cn3)C2)CCN1C(=O)c1cccc(F)c1` (single isomer, unassigned) [Example 150, {1-[1-(3-fluorobenzoyl)-2-methylpiperidin-4-yl]-3-[4-(7H-pyrrolo[2,3-d]pyrimidin-4-yl)-1H-pyrazol-1-yl]azetidin-3-yl}acetonitrile] gave a pIC50 in test [1] of at least 8.30. Further, the “IC50 Ratio JAK2/JAK1” value in test [2] is 7.0.

As to `N#CCC1(n2cc(-c3ncnc4[nH]ccc34)cn2)CN(C2CCN(C(=O)c3ccc(-c4ccc5ncccc5c4)c(F)c3)CC2)C1` [Example 2, {1-[1-(3-Fluoro-4-quinolin-6-ylbenzoyl)piperidin-4-yl]-3-[4-(7H-pyrrolo[2,3-d]pyrimidin-4-yl)-1H-pyrazol-1-yl]azetidin-3-yl}acetonitrile], the pIC50 against Jak2 (a.a. 828-1132) was 7.00 to 7.30; in test [1], at least 8.30. The “IC50 Ratio JAK2/JAK1” value in test [2] came out at 12.3.

For `N#CCC1(n2cc(-c3ncnc4[nH]ccc34)cn2)CN(C2CCN(C(=O)c3cc(F)cc(F)c3)CC2)C1` [Example 3, {1-[1-(3,5-difluorobenzoyl)piperidin-4-yl]-3-[4-(7H-pyrrolo[2,3-d]pyrimidin-4-yl)-1H-pyrazol-1-yl]azetidin-3-yl}acetonitrile], the results for the pIC50 (against Jak2 (a.a. 828-1132); in test [1]) were 7.30 to 8.00 and at least 8.30, respectively. In test [2], the “IC50 Ratio JAK2/JAK1” value came out at 11.0.

As to `N#CCC1(n2cc(-c3ncnc4[nH]ccc34)cn2)CN(C2CCN(C(=O)c3cc(F)c(F)c(F)c3)CC2)C1` [Example 4, {3-[4-(7H-pyrrolo[2,3-d]pyrimidin-4-yl)-1H-pyrazol-1-yl]-1-[1-(3,4,5-trifluorobenzoyl)piperidin-4-yl]azetidin-3-yl}acetonitrile], the negative-log IC50 (pIC50) against Jak2 (a.a. 828-1132) was 7.00 to 7.30; in test [1] it was 7.70 to 8.30. Further, the “IC50 Ratio JAK2/JAK1” value in test [2] was 10.2.

Consider `COc1ccc(C(=O)N2CCC(N3CC(CC#N)(n4cc(-c5ncnc6[nH]ccc56)cn4)C3)CC2)cc1F` [Example 5, {1-[1-(3-fluoro-4-methoxybenzoyl)piperidin-4-yl]-3-[4-(7H-pyrrolo[2,3-d]pyrimidin-4-yl)-1H-pyrazol-1-yl]azetidin-3-yl}acetonitrile], for which the pIC50 on Jak2 (a.a. 828-1132) was 7.30 to 8.00; in test [1], at least 8.30. For the same molecule, the “IC50 Ratio JAK2/JAK1” value in test [2] came out at 12.0.

As to `N#CCC1(n2cc(-c3ncnc4[nH]ccc34)cn2)CN(C2CCN(C(=O)c3ccc(O)c(F)c3)CC2)C1` [Example 6, {1-[1-(3-fluoro-4-hydroxybenzoyl)piperidin-4-yl]-3-[4-(7H-pyrrolo[2,3-d]pyrimidin-4-yl)-1H-pyrazol-1-yl]azetidin-3-yl}acetonitrile], the pIC50 on Jak2 (a.a. 828-1132) was 7.30 to 8.00; in test [1], at least 8.30. Besides, the “IC50 Ratio JAK2/JAK1” value in test [2] is reported as 14.3.

Take `N#CCC1(n2cc(-c3ncnc4[nH]ccc34)cn2)CN(C2CCN(C(=O)c3cccc(C(F)(F)F)c3F)CC2)C1` [Example 7, {1-{1-[2-fluoro-3-(trifluoromethyl)benzoyl]piperidin-4-yl}-3-[4-(7H-pyrrolo[2,3-d]pyrimidin-4-yl)-1H-pyrazol-1-yl]azetidin-3-yl}acetonitrile]: the pIC50 at Jak2 (a.a. 828-1132) is at least 8.00; in test [1], at least 8.30. Also, the “IC50 Ratio JAK2/JAK1” value in test [2] was 10.8.

With `N#CCC1(n2cc(-c3ncnc4[nH]ccc34)cn2)CN(C2CCN(C(=O)C3CCCCC3)CC2)C1` [Example 8, {1-[1-(cyclohexylcarbonyl)piperidin-4-yl]-3-[4-(7H-pyrrolo[2,3-d]pyrimidin-4-yl)-1H-pyrazol-1-yl]azetidin-3-yl}acetonitrile], the pIC50 is 7.00 to 7.30 against Jak2 (a.a. 828-1132) and 7.70 to 8.30 in test [1]. The “IC50 Ratio JAK2/JAK1” value in test [2] was 11.0.

Regarding `N#CCC1(n2cc(-c3ncnc4[nH]ccc34)cn2)CN(C2CCN(C(=O)c3ccccc3)CC2)C1` [Example 9, {1-(1-benzoylpiperidin-4-yl)-3-[4-(7H-pyrrolo[2,3-d]pyrimidin-4-yl)-1H-pyrazol-1-yl]azetidin-3-yl}acetonitrile], the pIC50 on Jak2 (a.a. 828-1132) was 7.30 to 8.00; in test [1], at least 8.30. In test [2], the “IC50 Ratio JAK2/JAK1” value is 3.2.

In the case of `N#CCC1(n2cc(-c3ncnc4[nH]ccc34)cn2)CN(C2CCN(C(=O)c3ccccc3C#N)CC2)C1` [Example 10, 2-[(4-{3-(cyanomethyl)-3-[4-(7H-pyrrolo[2,3-d]pyrimidin-4-yl)-1H-pyrazol-1-yl]azetidin-1-yl}piperidin-1-yl)carbonyl]benzonitrile], the figures for the pIC50 (on Jak2 (a.a. 828-1132); in test [1]) were 7.30 to 8.00 and 7.70 to 8.30, respectively. For the same molecule, in test [2], the “IC50 Ratio JAK2/JAK1” value was determined as 4.4.

On to `N#CCC1(n2cc(-c3ncnc4[nH]ccc34)cn2)CN(C2CCN(C(=O)c3cccc(C#N)c3)CC2)C1` [Example 11, 3-[(4-{3-(cyanomethyl)-3-[4-(7H-pyrrolo[2,3-d]pyrimidin-4-yl)-1H-pyrazol-1-yl]azetidin-1-yl}piperidin-1-yl)carbonyl]benzonitrile], for which the results for the pIC50 (against Jak2 (a.a. 828-1132); in test [1]) were 7.30 to 8.00 and 7.70 to 8.30, respectively. For the same molecule, in test [2], the “IC50 Ratio JAK2/JAK1” value is on record as 7.2.

`N#CCC1(n2cc(-c3ncnc4[nH]ccc34)cn2)CN(C2CCN(C(=O)c3ccc(C#N)cc3)CC2)C1` [Example 12, 4-[(4-{3-(cyanomethyl)-3-[4-(7H-pyrrolo[2,3-d]pyrimidin-4-yl)-1H-pyrazol-1-yl]azetidin-1-yl}piperidin-1-yl)carbonyl]benzonitrile]: the pIC50 at Jak2 (a.a. 828-1132) is under 7.00; in test [1] it was 7.52 to 7.70. Also, the “IC50 Ratio JAK2/JAK1” value in test [2] is listed as 5.2.

Take `N#CCC1(n2cc(-c3ncnc4[nH]ccc34)cn2)CN(C2CCN(C(=O)c3cccc(Cl)n3)CC2)C1` [Example 13, {1-{1-[(6-chloropyridin-2-yl)carbonyl]piperidin-4-yl}-3-[4-(7H-pyrrolo[2,3-d]pyrimidin-4-yl)-1H-pyrazol-1-yl]azetidin-3-yl}acetonitrile]: the figures for the negative logarithm of the IC50 (pIC50) (at Jak2 (a.a. 828-1132); in test [1]) were 7.30 to 8.00 and at least 8.30, respectively. For the same molecule, the “IC50 Ratio JAK2/JAK1” value in test [2] was determined as 5.3.

In the case of `N#CCC1(n2cc(-c3ncnc4[nH]ccc34)cn2)CN(C2CCN(C(=O)c3cnccn3)CC2)C1` [Example 14, {1-[1-(pyrazin-2-lcarbonyl)piperidin-4-yl]-3-[4-(7H-pyrrolo[2,3-d]pyrimidin-4-yl)-1H-pyrazol-1-yl]azetidin-3-l}acetonitrile], the pIC50 on Jak2 (a.a. 828-1132) was 7.30 to 8.00; in test [1] it was 7.70 to 8.30. Also, in test [2], the “IC50 Ratio JAK2/JAK1” value stood at 3.2.

For `N#CCC1(n2cc(-c3ncnc4[nH]ccc34)cn2)CN(C2CCN(C(=O)c3ccsc3)CC2)C1` [Example 15, {3-[4-(7H-pyrrolo[2,3-d]pyrimidin-4-yl)-1H-pyrazol-1-yl]-1-[1-(3-thienylcarbonyl)piperidin-4-yl]azetidin-3-yl}acetonitrile], the pIC50 against Jak2 (a.a. 828-1132) is 7.30 to 8.00; in test [1], 7.70 to 8.30. For the same molecule, the “IC50 Ratio JAK2/JAK1” value in test [2] stood at 5.3.

Regarding `N#CCC1(n2cc(-c3ncnc4[nH]ccc34)cn2)CN(C2CCN(C(=O)c3ncco3)CC2)C1` [Example 16, {1-[1-(1,3-oxazol-2-ylcarbonyl)piperidin-4-yl]-3-[4-(7H-pyrrolo[2,3-d]pyrimidin-4-yl)-1H-pyrazol-1-yl]azetidin-3-yl}acetonitrile], the pIC50 was 7.30 to 8.00 at Jak2 (a.a. 828-1132) and 7.70 to 8.30 in test [1]. Further, the “IC50 Ratio JAK2/JAK1” value in test [2] came to 2.5.

On to `N#CCC1(n2cc(-c3ncnc4[nH]ccc34)cn2)CN(C2CCN(C(=O)c3ccc(-c4cccc5cccnc45)c(F)c3)CC2)C1` [Example 132, {1-[1-(3-fluoro-4-quinolin-8-ylbenzoyl)piperidin-4-yl]-3-[4-(7H-pyrrolo[2,3-d]pyrimidin-4-yl)-1H-pyrazol-1-yl]azetidin-3-yl}acetonitrile], for which, at Jak2 (a.a. 828-1132), the pIC50 is at least 8.00. The “IC50 Ratio JAK2/JAK1” value in test [2] is listed as 5.8.

Take `CC1CC(N2CC(CC#N)(n3cc(-c4ncnc5[nH]ccc45)cn3)C2)CCN1Cc1c(F)cccc1Cl` (stereo not shown) [Example 245, {1-[1-(2-chloro-6-fluorobenzyl)-2-methylpiperidin-4-yl]-3-[4-(7H-pyrrolo[2,3-d]pyrimidin-4-yl)-1H-pyrazol-1-yl]azetidin-3-yl}acetonitrile]: in test [2], the “IC50 Ratio JAK2/JAK1” value stood at 1.5.
